# According to patent US7462640B2, “Indol-6yl sulfonamide derivatives, their preparation and their use as 5-HT-6 as modulators” (Laboratorios del Dr. Esteve S.A., priority 2003, dated 2008):
row,melting point,Structure (SMILES)
1,140 to 143 °C,"CN(C)CCn1ccc2ccc(NS(=O)(=O)c3ccc4ccccc4c3)cc21 [Example 2, N-[1-(2-Dimethylaminoethyl)-1H-indole-6-yl]-naphthalene-2-sulfonamide]"
2,139 to 142 °C,"CN(C)CCn1ccc2ccc(NS(=O)(=O)c3cccc4ccccc34)cc21 [Example 3, N-[1-(2-Dimethylaminoethyl)-1H-indole-6-yl]-naphthalene-1-sulfonamide]"
3,150 to 159 °C,"CN(C)CCn1ccc2ccc(NS(=O)(=O)c3cc(Cl)cc(Cl)c3)cc21 [Example 8, N-[1-(2-dimethylaminoethyl)-1H-indole-6-yl]-3,5-dichlorobenzenesulfonamide]"
